Measurements as given in patent publication US20050049242A1 (priority 2000, published 2005).
Like-named read-outs stand apart in the source and are kept apart here.

What was measured:
HIVNL4-3 JF26/A7 = settings: for concentration of the drug in the combination with L-CCA giving Fa: NL4-3cloneJF26/A7, combined with L-CCA
Description: (§1) For each of these HIV clones, the ED50 was determined for the anti-HIV compounds ZDV, DDC, DDI, the protease inhibitor (PI) Nelfinavir (provided by Agouron Pharmaceuticals, San Diego), and L-CCA.
(§2) Molecular clones of HIV included wild-type HIVNL4-3, HIVNL4-3 M184V, and HIVNL4-3 JF26/A7, All three clones were a generous gift from P. Krogstad (UCLA, Los Angeles, Calif.). Viruses were initially, transfected in adherent HeLa cells using Lipofectin®. After 48 hours, H9 cells were added. Following 24 hours of co-culture, non-adherent cells were removed and cultured. Cells were monitored by indirect immunofluorescence and RT release as described below until the culture was 100% infected by HIV-1. Supernatant fluids were collected and clarified of cells by low-speed centrifugation followed by filtration through 0.45 μm filters.
(§3) Anti-HIV activity of compounds was determined both alone and in combination using a cytopathicity based assay as described above. […] The fifty-percent effective dose (ED50) was calculated for triplicate infections. Mean ED50 (shown in FIG. 5) were calculated for each drug against each HIV variant from a minimum of three experiments performed in triplicate.
(§4) Experiments were designed at a fixed ratio of drugs; the ratio for each drug combination was determined based on the ED50 of each drug alone against each HIV variant. Combination indices were calculated on representative experiments performed in triplicate according to the following formula of Chou and Talalay: fa/fu=(D/Dm)^m
(§5) Where fa is the fraction affected by the dose, fu is the unaffected fraction, D is the dose of the drug, Dm is the median-effect dose determined to be the x-intercept of the median-effect plot, and m is the sigmoidicity of the dose-effect curve, determined by the slope of the median-effect plot. The median effect plot is based on the following equation: log(fa/fu)=^m log (D)−m log (Dm)

HIVNL4-3 clone 7-1 = assay type: cell-based, HIV-1; settings: for concentration of the drug in the combination with L-CCA giving Fa: NL4-3clone7-1, combined with L-CCA
HIV-1NL4-3clone1-D4 = assay type: cell-based; settings: for Fold Change (ED50 resistant clone vs HIVNL4-3): HIVNL4-3clone1-D4 vs HIVNL4-3; for efficacy against the L-chicoric acid resistant clone: compared with parental HIVNL4-3; for EC50: mean of triplicate infections, read-out: ED50 HIVNL4-3clone1-D4
Description: (§6) Cloning and sequencing of virus from the HIVNL4-3 passaged in the presence of 8 μM L-chicoric acid was undertaken to determine the molecular basis for resistance to L-chicoric acid and to isolate a resistant HIV clone.
This cloning was accomplished through site-directed mutagenesis introducing several silent mutations immediately upstream and downstream of the integrase gene. These mutations generated two unique restriction sites: an upstream SacII and a downstream XbaI (FIG. 15). Introduction of these mutations allowed the entire integrase gene with only minimal upstream and downstream nucleotides to be digested and “swapped” between drug-resistant and drug-sensitive clones.

HIVNL4-3 M184V = assay type: cell-based, HIV-1; settings: for concentration of the drug in the combination with L-CCA giving Fa: NL4-3cloneM184V, combined with L-CCA
Description: as §1, §2, §3, §4, §5

HIVLAI = test: Anti-HIV assay, protection from HIV-induced cell death; assay type: cell-based; settings: read-out: ED50 (concentration that inhibits HIV-induced cell death by 50%)
Description: Anti-HIV assays were performed as described above. […] The compounds were then two-fold serially diluted in triplicate. To each 50 μl of diluted compound, 50 μl of HIVLAI was added and the virus-drug mixture was incubated for 1 hr at 37° C. […] Final multiplicity of infection (MOI) was 1-5. Cells were harvested to quantitate cytopathic effect using a neutral red dye assay as described.

MT-2 cells = settings: 48 hours
Description: The chemical structures of the compounds are illustrated in FIGS. 1-4. In FIG. 1a, the D- and meso-isomers of L-chicoric acid are identical in this illustrative format. […] The first compound in Table 1, L-chicoric acid, a previously described DCTA, is included for reference. LD5, the 5% lethal dose, is a measure of the toxicity of compound to living, cultured cells. It is the concentration at which cell growth is inhibited by 5%. […] Most simply understood, disintegration is a term used to refer to the reverse of integration.
Cell toxicity and anti-HIV assays were performed as reported above. […] Cells were incubated with drug for 48 hours at 37° C., then harvested for cell viability in a neutral red dye assay as described.

HIV-1NL4-3 = test: Anti-HIV cytopathicity assay against parental molecular clone; assay type: cell-based; settings: mean of triplicate infections; read-out: ED50 HIVNL4-3
Description: as §6
Assays, as described above, to determine the ED50 for a given compound against the molecular clone HIVNL4-3clone1-D4 and the parental clone HIVNL4-3 give an indication of the selectivity of the compound for inhibition of HIV replication through IN. Resistance to a compound, as measured by an increased ED50, by clone HIVNL4-3clone1-D4, implies selectivity of the compound for IN. Thus clone HIVNL4-3clone1-D4 can be used to screen candidate IN inhibitors for selectivity.

HIV-1 IN = HIV-1 IN (Human immunodeficiency virus type 1 group M subtype B, UniProt P12497); test: biochemical
[1] = Human immunodeficiency virus 1, MT2, 72 h

Cc1cn([C@H]2C[C@H](N=[N+]=[N-])[C@@H](CO)O2)c(=O)[nH]c1=O [Zidovudine, zidovudine]
concentration of the drug in the combination with L-CCA giving Fa (HIVNL4-3 JF26/A7; Fa 0.2): 150.2 nM | concentration of the drug in the combination with L-CCA giving Fa (HIVNL4-3 JF26/A7; Fa 0.4): 259.8 nM | concentration of the drug in the combination with L-CCA giving Fa (HIVNL4-3 JF26/A7; Fa 0.6): 409 nM | concentration of the drug in the combination with L-CCA giving Fa (HIVNL4-3 JF26/A7; Fa 0.8): 707 nM | concentration of the drug in the combination with L-CCA giving Fa (HIVNL4-3 JF26/A7; Fa 0.9): 1112 nM | susceptibility of the clone to the drug alone (HIVNL4-3 JF26/A7; HIVNL4-3 JF26/A7): highly resistant | concentration of the drug in the combination with L-CCA giving Fa (HIVNL4-3 clone 7-1; Fa 0.2): 2.7 nM | concentration of the drug in the combination with L-CCA giving Fa (HIVNL4-3 clone 7-1; Fa 0.4): 8.7 nM | concentration of the drug in the combination with L-CCA giving Fa (HIVNL4-3 clone 7-1; Fa 0.6): 22.9 nM | concentration of the drug in the combination with L-CCA giving Fa (HIVNL4-3 clone 7-1; Fa 0.8): 73.8 nM | concentration of the drug in the combination with L-CCA giving Fa (HIVNL4-3 clone 7-1; Fa 0.9): 194 nM | sensitivity of the clones to the drug compared with parental HIVNL4-3 (HIV-1NL4-3clone1-D4; clones 7-1, 7-3 and 1-D4, FIG. 16a): same sensitivity | concentration of the drug in the combination with L-CCA giving Fa (HIVNL4-3 M184V; Fa 0.2): 4.9 nM | concentration of the drug in the combination with L-CCA giving Fa (HIVNL4-3 M184V; Fa 0.4): 10.2 nM | concentration of the drug in the combination with L-CCA giving Fa (HIVNL4-3 M184V; Fa 0.6): 18.9 nM | concentration of the drug in the combination with L-CCA giving Fa (HIVNL4-3 M184V; Fa 0.8): 39.6 nM | concentration of the drug in the combination with L-CCA giving Fa (HIVNL4-3 M184V; Fa 0.9): 73 nM

Nc1ccn([C@H]2CC[C@@H](CO)O2)c(=O)n1 [DDC, 2′,3′-dideoxycytidine]
concentration of the drug in the combination with L-CCA giving Fa (HIVNL4-3 JF26/A7; Fa 0.2): 13.0 nM | concentration of the drug in the combination with L-CCA giving Fa (HIVNL4-3 JF26/A7; Fa 0.4): 23.8 nM | concentration of the drug in the combination with L-CCA giving Fa (HIVNL4-3 JF26/A7; Fa 0.6): 39.2 nM | concentration of the drug in the combination with L-CCA giving Fa (HIVNL4-3 JF26/A7; Fa 0.8): 71.8 nM | concentration of the drug in the combination with L-CCA giving Fa (HIVNL4-3 JF26/A7; Fa 0.9): 118 nM | concentration of the drug in the combination with L-CCA giving Fa (HIVNL4-3 clone 7-1; Fa 0.2): 12.4 nM | concentration of the drug in the combination with L-CCA giving Fa (HIVNL4-3 clone 7-1; Fa 0.4): 21.1 nM | concentration of the drug in the combination with L-CCA giving Fa (HIVNL4-3 clone 7-1; Fa 0.6): 32.8 nM | concentration of the drug in the combination with L-CCA giving Fa (HIVNL4-3 clone 7-1; Fa 0.8): 56.0 nM | concentration of the drug in the combination with L-CCA giving Fa (HIVNL4-3 clone 7-1; Fa 0.9): 87.1 nM | susceptibility of the clone to the drug alone (HIVNL4-3 clone 7-1; HIVNL4-3 clone 7-1): increased susceptibility | concentration of the drug in the combination with L-CCA giving Fa (HIVNL4-3 M184V; Fa 0.2): 21.6 nM | concentration of the drug in the combination with L-CCA giving Fa (HIVNL4-3 M184V; Fa 0.4): 43.2 nM | concentration of the drug in the combination with L-CCA giving Fa (HIVNL4-3 M184V; Fa 0.6): 76.8 nM | concentration of the drug in the combination with L-CCA giving Fa (HIVNL4-3 M184V; Fa 0.8): 153.7 nM | concentration of the drug in the combination with L-CCA giving Fa (HIVNL4-3 M184V; Fa 0.9): 273 nM | susceptibility of the clone to the drug alone (HIVNL4-3 M184V; clone with methionine to valine mutation in RT): partial resistance

O=C(O[C@@H](C(=O)O)[C@@H](OC(=O)c1cc(O)c(O)c(O)c1)C(=O)O)c1cc(O)c(O)c(O)c1 [Compound 25]
EC50 (HIVLAI; HIVLAI, MT-2 cells, 72 hr): 660 nM | Fold Change (ED50 resistant clone vs HIVNL4-3) (HIV-1NL4-3clone1-D4): 107 | efficacy against the L-chicoric acid resistant clone (HIV-1NL4-3clone1-D4): reduced efficacy | EC50 (HIV-1NL4-3clone1-D4): 31200 nM | LD5 (5% lethal dose, concentration at which cell growth is inhibited by 5%) (MT-2 cells): 2.7 µM | EC50 (HIV-1NL4-3): 290 nM

O=C(C=Cc1ccc(O)c(O)c1)NCC(OC(=O)C=Cc1ccc(O)c(O)c1)C(=O)O [Compound 40, Bis-dicaffeoyl-L-isoserine]
EC50 (HIVLAI; [1]): 3000 nM | IC50 (HIV-1 IN): 195 nM | LD5 (5% lethal dose, concentration at which cell growth is inhibited by 5%) (MT-2 cells): 175 µM

O=C(O[C@@H](C(=O)O)[C@@H](OC(=O)c1ccc(O)c(O)c1)C(=O)O)c1ccc(O)c(O)c1 [Compound 26]
EC50 (HIVLAI; HIVLAI, MT-2 cells, 72 hr): 950 nM | Fold Change (ED50 resistant clone vs HIVNL4-3) (HIV-1NL4-3clone1-D4): 64 | efficacy against the L-chicoric acid resistant clone (HIV-1NL4-3clone1-D4): reduced efficacy | EC50 (HIV-1NL4-3clone1-D4): 52500 nM | LD5 (5% lethal dose, concentration at which cell growth is inhibited by 5%) (MT-2 cells): 90 µM | EC50 (HIV-1NL4-3): 820 nM

O=C(C=Cc1ccc(O)c(O)c1)NCC(NC(=O)C=Cc1ccc(O)c(O)c1)C(=O)O (stereo not shown) [Compound 35, 2-3-dicaffeoyldiamidopropionic acid]
EC50 (HIVLAI; [1]): 70000 nM | IC50 (HIV-1 IN): 570 nM | LD5 (5% lethal dose, concentration at which cell growth is inhibited by 5%) (MT-2 cells): 50 µM

O=C(Cc1ccc(O)c(O)c1)O[C@@H](C(=O)O)[C@@H](OC(=O)Cc1ccc(O)c(O)c1)C(=O)O [Compound 28]
EC50 (HIVLAI; HIVLAI, MT-2 cells, 72 hr): 35000 nM | Fold Change (ED50 resistant clone vs HIVNL4-3) (HIV-1NL4-3clone1-D4): 4 | efficacy against the L-chicoric acid resistant clone (HIV-1NL4-3clone1-D4): reduced efficacy | EC50 (HIV-1NL4-3clone1-D4): 62500 nM | LD5 (5% lethal dose, concentration at which cell growth is inhibited by 5%) (MT-2 cells): 70 µM | EC50 (HIV-1NL4-3): 15600 nM
